Source: ChEMBL document CHEMBL4476867, “Hydroxy formamide derivatives and their use” (2016)

Key:
[1] = Reduction in PICP levels in human cardiac fibroblasts incubated for 24 to 48 hrs by ELISA; assay type: functional
Summary of the method: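 Human cardiac fibroblasts (passage 6 or below) were seeded at 10,000 to 15,000 cells per well in 96-well plates. The next day they were treated in ficoll crowding EMEM with 100 μM ascorbic acid and under 0.3% DMSO, for 24 to 48 hr at 37° C. Procollagen I C-terminal propeptide in the medium was measured with a Quidel ELISA. IC50 came from fitting levels relative to untreated controls to a log(inhibitor)-response equation in GraphPad Prism.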

[2] = biological target: T1, Bone morphogenetic protein 1 (Homo sapiens, UniProt P13497); experiment: Inhibition of C-terminal FLAG-6x-His epitope tagged and N-terminal human RAGE signal sequence tagged human BMP1 (23 to 721 amino acids) expressed in CHO-E1 cells pre-incubated for 10 mins before promyostatin peptide substrate addition and measured after 60 mins using 0.5 nM BMP1 by FRET based assay; assay type: cell-based
T1 sequence (P13497 whole entry): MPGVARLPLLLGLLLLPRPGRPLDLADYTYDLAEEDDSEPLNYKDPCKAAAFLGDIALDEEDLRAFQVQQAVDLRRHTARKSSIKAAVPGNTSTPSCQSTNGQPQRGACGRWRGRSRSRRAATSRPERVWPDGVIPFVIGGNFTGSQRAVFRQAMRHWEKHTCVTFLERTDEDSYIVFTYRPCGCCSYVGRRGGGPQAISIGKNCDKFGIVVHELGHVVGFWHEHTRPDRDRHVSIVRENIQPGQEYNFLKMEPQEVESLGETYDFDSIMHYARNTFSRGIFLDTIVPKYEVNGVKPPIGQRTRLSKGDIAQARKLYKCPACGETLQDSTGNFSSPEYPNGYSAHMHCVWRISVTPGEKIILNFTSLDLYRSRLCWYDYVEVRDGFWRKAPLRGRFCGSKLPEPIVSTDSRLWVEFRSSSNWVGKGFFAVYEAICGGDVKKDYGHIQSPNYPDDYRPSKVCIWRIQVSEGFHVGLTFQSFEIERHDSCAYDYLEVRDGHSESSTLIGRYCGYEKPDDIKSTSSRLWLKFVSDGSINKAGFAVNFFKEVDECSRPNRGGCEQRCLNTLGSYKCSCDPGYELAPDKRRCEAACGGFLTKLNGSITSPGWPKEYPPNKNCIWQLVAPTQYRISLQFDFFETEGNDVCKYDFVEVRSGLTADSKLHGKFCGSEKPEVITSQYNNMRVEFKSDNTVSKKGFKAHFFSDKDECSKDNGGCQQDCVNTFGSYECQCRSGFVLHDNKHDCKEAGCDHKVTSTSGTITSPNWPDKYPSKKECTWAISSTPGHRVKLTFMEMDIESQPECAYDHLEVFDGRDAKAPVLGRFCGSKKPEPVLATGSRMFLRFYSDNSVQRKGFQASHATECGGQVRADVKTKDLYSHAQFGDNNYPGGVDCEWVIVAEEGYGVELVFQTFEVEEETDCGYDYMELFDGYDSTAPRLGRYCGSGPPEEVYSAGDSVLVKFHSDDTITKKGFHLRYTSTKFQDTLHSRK

[3] = biological target: T1, Bone morphogenetic protein 1; experiment: Inhibition of C-terminal FLAG-6x-His epitope tagged and N-terminal human RAGE signal sequence tagged human BMP1 (23 to 721 amino acids) expressed in CHO-E1 cells pre-incubated for 10 mins before promyostatin peptide substrate addition and measured after 30 mins using 50 nM BMP1 by FRET based assay; assay type: cell-based
[4] = Reduction in mature collagen deposition levels in human cardiac fibroblasts incubated for 24 to 48 hrs by immunostaining based assay; assay type: functional
Summary of the method: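 Human cardiac fibroblasts in 96-well plates were treated in ficoll crowding EMEM with 100 μM ascorbic acid and under 0.3% DMSO, for 24 to 48 hr at 37° C. Cells were fixed in −20° C methanol for 10 min. They were stained with anti-mature collagen I antibody, Alexa647 secondary antibody and Hoechst, then imaged on an Operetta system. Collagen intensity was normalised to nuclei count per field, and IC50 was fitted in GraphPad Prism.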

Tolloid-like protein 1 = Tolloid-like protein 1 (Homo sapiens, UniProt O43897, I156V/N221S/V284A); experiment: Inhibition of recombinant human TLL1 I156V/N221S/V284A mutant expressed in CHOE1A cells pre-incubated for 10 mins before promyostatin peptide substrate addition and measured after 60 mins by FRET based assay; assay type: cell-based
Chain of Tolloid-like protein 1 (O43897 148-1013 I156V/N221S/V284A limits assumed): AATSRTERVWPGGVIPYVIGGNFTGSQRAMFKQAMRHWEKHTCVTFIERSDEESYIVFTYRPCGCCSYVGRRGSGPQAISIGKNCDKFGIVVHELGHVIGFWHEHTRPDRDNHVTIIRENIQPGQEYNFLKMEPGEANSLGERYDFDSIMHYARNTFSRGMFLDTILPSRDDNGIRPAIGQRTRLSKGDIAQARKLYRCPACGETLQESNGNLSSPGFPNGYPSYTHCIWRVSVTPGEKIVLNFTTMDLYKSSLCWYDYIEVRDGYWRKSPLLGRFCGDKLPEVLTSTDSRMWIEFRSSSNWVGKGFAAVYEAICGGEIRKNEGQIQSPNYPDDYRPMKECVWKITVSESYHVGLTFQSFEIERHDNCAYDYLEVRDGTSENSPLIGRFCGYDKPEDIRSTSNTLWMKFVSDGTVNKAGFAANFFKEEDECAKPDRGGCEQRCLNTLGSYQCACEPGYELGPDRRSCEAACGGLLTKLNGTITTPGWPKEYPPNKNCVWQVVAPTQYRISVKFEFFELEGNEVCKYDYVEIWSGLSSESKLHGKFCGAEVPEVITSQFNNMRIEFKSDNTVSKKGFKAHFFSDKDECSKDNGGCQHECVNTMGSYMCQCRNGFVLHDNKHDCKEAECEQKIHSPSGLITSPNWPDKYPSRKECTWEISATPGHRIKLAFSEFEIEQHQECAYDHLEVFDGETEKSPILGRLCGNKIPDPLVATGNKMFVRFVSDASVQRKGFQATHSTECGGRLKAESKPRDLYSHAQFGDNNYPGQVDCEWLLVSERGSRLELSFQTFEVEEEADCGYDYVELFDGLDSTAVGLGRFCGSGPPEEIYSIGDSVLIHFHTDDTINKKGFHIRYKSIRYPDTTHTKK

Tolloid-like protein 2 = biological target: T2, Tolloid-like protein 2 (Homo sapiens, UniProt Q9Y6L7); experiment: Inhibition of C-terminal Avi-6x-His epitope tagged and N-terminal human RAGE signal sequence tagged recombinant human TLL2 (26 to 1015 amino acids) expressed in CHOE1A cells incubated for 60 mins with promyostatin peptide substrate by FRET based assay; assay type: cell-based
T2 sequence (Q9Y6L7 whole entry): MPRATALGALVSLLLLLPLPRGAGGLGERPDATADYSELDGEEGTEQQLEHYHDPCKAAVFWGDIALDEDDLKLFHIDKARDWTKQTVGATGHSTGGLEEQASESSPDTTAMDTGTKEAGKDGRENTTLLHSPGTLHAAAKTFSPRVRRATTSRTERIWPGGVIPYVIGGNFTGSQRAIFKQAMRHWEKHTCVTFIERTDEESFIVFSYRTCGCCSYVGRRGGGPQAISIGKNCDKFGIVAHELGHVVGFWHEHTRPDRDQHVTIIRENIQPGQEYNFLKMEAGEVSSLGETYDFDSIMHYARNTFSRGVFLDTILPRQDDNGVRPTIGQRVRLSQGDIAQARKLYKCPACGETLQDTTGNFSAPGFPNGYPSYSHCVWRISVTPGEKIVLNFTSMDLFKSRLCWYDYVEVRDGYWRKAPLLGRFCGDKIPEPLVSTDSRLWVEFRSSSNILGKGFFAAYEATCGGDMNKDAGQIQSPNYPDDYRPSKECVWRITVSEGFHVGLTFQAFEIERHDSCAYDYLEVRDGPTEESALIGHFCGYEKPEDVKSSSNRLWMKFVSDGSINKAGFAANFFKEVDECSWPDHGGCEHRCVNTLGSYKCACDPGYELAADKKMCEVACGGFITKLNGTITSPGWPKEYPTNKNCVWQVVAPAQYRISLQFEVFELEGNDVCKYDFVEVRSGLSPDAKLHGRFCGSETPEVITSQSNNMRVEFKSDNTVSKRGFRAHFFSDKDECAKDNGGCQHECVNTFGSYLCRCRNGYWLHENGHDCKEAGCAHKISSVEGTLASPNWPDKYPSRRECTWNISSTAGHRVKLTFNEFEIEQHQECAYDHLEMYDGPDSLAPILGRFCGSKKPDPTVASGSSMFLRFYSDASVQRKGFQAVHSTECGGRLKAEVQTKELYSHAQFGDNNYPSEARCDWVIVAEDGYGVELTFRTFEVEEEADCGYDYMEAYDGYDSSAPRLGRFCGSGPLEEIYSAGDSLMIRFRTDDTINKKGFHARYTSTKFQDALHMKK

Compound | IC50 [1] [nM] | IC50 [2] [nM] | IC50 [3] [nM] | IC50 [4] [nM] | IC50 (Tolloid-like protein 1) [nM] | IC50 (Tolloid-like protein 2) [nM]
CCOc1cc(C(=O)N(CC(=O)O)CC(=O)O)cc(-c2ccc(C(=O)NCNC(=O)[C@H](CCc3ccc(F)cc3F)[C@@H](CC)N(O)C=O)o2)c1 | < 3980 | < 126 | < 200 | < 1000 | < 398 | < 794
CCCCC[C@@H](C(=O)NCNC(=O)c1ccc(-c2ccc(C(=O)N[C@@H](CC(=O)O)C(=O)O)c(OCC(=O)O)c2)o1)[C@@H](CC)N(O)C=O | < 3980 | < 126 | < 200 | < 1000 | < 398 | < 794
CCCCC[C@@H](C(=O)NCNC(=O)c1ccc(-c2cc(O)cc(C(=O)O)c2)o1)[C@@H](CC)N(O)C=O | < 3980 | < 126 | < 200 | < 1000 | < 398 | < 794
CCCCC[C@@H](C(=O)NCNC(=O)c1ccc(-c2cc(O)c(C(=O)O)c(OCC)c2)o1)[C@@H](CC)N(O)C=O | < 3980 | < 126 | < 200 | < 1000 | < 398 | < 794
CCCCC[C@@H](C(=O)NCNC(=O)c1ccc(-c2ccc(C(=O)N[C@H](CC(=O)O)C(=O)O)c(OCC)c2)o1)[C@@H](CC)N(O)C=O | < 3980 | < 126 | < 200 | < 1000 | < 398 | < 794
CCCCC[C@@H](C(=O)NCNC(=O)c1ccc(-c2cc(OCC(=O)O)cc(C(=O)O)c2)o1)[C@@H](CC)N(O)C=O | < 3980 | < 126 | < 200 | < 1000 | < 398 | < 794
CCOc1cc(-c2ccc(C(=O)NCNC(=O)[C@H](CCc3ccccc3)[C@@H](CC)N(O)C=O)o2)ccc1C(=O)N[C@@H](CC(=O)O)C(=O)O | < 3980 | < 126 | < 200 | < 1000 | < 398 | < 794
CCOc1cc(-c2ccc(C(=O)NCNC(=O)[C@H](CCc3ccccc3)[C@@H](CC)N(O)C=O)o2)ccc1C(=O)N(CC(=O)O)CC(=O)O | < 3980 | < 126 | < 200 | < 1000 | < 398 | < 794
CCCCC[C@@H](C(=O)NCNC(=O)c1ccc(-c2ccc(C(=O)NCP(=O)(O)O)c(OCC)c2)o1)[C@@H](CC)N(O)C=O | < 3980 | < 126 | < 200 | < 1000 | < 398 | < 794
CCCCC[C@@H](C(=O)NCNC(=O)c1ccc(-c2cc(OCC(=O)O)cc(C(=O)O)c2O)o1)[C@@H](CC)N(O)C=O | < 3980 | < 126 | < 200 | < 1000 | < 398 | < 794
CCOc1cc(-c2ccc(C(=O)NCNC(=O)[C@H](CCc3ccc(F)cc3F)[C@@H](CC)N(O)C=O)o2)ccc1C(=O)N[C@@H](CC(=O)O)C(=O)O | < 3980 | < 126 | < 200 | < 1000 | < 398 | < 794
